This passage reports IC50 and EC50 results from ChEMBL document CHEMBL4007384, “Synthesis and optimization of furano[3,2-d]pyrimidines as selective spleen tyrosine kinase (Syk) inhibitors” (Bioorg Med Chem Lett, 2016).

The target of experiment [1] is T1, Tyrosine-protein kinase JAK3 (Homo sapiens, UniProt P52333).
T1 sequence (P52333 whole entry): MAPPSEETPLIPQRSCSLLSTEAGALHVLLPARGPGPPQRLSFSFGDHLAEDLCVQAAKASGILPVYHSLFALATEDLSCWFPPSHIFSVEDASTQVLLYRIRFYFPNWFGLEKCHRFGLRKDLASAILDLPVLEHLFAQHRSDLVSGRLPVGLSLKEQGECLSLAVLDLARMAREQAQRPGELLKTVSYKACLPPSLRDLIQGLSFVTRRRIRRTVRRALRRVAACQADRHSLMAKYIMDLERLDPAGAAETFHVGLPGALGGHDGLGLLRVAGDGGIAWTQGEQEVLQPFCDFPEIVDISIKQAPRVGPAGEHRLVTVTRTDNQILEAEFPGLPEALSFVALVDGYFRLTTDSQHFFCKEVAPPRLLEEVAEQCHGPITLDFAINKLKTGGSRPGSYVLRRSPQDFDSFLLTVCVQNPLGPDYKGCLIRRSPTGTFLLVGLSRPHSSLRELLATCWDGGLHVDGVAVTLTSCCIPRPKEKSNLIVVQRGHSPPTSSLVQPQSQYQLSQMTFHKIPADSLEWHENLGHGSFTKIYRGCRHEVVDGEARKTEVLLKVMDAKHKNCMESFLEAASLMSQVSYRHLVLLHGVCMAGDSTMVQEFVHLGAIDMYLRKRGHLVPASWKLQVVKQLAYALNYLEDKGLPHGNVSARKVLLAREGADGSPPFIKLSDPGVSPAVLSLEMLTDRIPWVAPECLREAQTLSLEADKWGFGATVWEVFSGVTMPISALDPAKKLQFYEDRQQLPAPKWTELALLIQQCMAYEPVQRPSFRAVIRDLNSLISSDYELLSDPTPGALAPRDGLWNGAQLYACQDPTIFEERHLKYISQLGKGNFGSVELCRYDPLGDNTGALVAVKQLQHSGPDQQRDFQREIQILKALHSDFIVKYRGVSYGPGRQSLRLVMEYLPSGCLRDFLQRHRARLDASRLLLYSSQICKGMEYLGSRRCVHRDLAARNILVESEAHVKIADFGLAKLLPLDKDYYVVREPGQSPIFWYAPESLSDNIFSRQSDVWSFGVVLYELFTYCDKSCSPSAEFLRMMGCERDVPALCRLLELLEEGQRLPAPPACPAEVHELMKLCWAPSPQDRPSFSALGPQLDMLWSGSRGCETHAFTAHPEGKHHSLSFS
As to the kind of experiment: Inhibition of JAK3 (unknown origin) after 60 mins by TR-FRET assay. (In TR-FRET formats the signal depends on donor and acceptor labels being close together.)

Experiment [2] has as its target Glycogen synthase kinase-3 beta (Homo sapiens, UniProt P49841). Kind of experiment: Inhibition of GSK3B (unknown origin) after 60 mins by TR-FRET assay.
For experiment [3], the target named is Tyrosine-protein kinase SYK (Homo sapiens, UniProt P43405).
Description: Inhibition of Syk in human Ramos B cells assessed as decrease in intracellular calcium flux measured for 3.5 mins by calcium-5 dye based FLIPR assay
Experiment [4] has as its target Dual specificity tyrosine-phosphorylation-regulated kinase 1B (Homo sapiens, UniProt Q9Y463). Kind of experiment: Inhibition of DYRK1B (unknown origin) after 60 mins by TR-FRET assay.
Experiment [5] addresses T2, Serine/threonine-protein kinase TBK1 (Homo sapiens, UniProt Q9UHD2).
T2 sequence (Q9UHD2 whole entry): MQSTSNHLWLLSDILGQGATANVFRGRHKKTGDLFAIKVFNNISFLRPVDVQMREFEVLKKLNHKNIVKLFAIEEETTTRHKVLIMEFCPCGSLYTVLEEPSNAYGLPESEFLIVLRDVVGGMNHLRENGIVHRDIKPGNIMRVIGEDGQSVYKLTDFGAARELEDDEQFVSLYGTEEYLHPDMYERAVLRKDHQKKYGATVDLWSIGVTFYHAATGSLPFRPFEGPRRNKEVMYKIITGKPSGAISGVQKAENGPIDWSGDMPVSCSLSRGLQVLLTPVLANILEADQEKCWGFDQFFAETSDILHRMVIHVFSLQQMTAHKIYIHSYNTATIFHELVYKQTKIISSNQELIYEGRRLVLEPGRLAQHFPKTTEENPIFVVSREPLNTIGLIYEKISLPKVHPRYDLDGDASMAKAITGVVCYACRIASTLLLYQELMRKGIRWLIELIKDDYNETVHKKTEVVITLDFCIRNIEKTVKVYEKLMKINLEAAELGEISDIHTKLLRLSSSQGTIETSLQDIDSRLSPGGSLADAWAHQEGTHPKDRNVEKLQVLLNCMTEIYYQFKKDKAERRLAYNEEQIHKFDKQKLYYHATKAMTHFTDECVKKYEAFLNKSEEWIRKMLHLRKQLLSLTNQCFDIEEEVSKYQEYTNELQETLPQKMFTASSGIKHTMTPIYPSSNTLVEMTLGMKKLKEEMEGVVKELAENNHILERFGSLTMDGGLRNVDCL
As to the kind of experiment: Inhibition of TBK1 (unknown origin) after 60 mins by TR-FRET assay.

Experiment [6] concerns the target T3, Serine/threonine-protein kinase Nek2 (Homo sapiens, UniProt P51955).
T3 sequence (P51955 whole entry): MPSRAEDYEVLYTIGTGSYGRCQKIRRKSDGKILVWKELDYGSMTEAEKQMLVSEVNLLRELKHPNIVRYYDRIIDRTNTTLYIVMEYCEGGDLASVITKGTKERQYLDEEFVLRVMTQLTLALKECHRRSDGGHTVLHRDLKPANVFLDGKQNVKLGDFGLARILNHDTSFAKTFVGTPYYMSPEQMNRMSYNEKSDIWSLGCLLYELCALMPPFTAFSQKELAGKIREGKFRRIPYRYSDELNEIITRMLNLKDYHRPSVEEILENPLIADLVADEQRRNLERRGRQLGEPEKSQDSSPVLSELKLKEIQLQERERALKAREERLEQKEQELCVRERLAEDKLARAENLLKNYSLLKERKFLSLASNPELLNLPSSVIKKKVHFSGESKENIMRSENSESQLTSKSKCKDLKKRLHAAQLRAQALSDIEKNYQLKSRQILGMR
As to the kind of experiment: Inhibition of NEK2 (unknown origin) after 60 mins by TR-FRET assay.

The next experiment deals with MAP kinase p38 (Homo sapiens, UniProt O15264+Q15759+Q16539+P53778). As to the kind of experiment: Inhibition of p38 (unknown origin) after 60 mins by TR-FRET assay.
Experiment [7] concerns the target Rho-associated protein kinase 1 (Homo sapiens, UniProt Q13464). Kind of experiment: Inhibition of ROCK1(unknown origin) after 60 mins by TR-FRET assay.
Experiment [8] has as its target Protein kinase C theta type (Homo sapiens, UniProt Q04759). Kind of experiment: Inhibition of PKCtheta (unknown origin) after 60 mins by TR-FRET assay.
In experiment [9] the target is Insulin-like growth factor 1 receptor (Homo sapiens, UniProt P08069). As to the kind of experiment: Inhibition of IGF1R (unknown origin) after 60 mins by TR-FRET assay.
Chain of Insulin-like growth factor 1 receptor (P08069 31-736 limits assumed): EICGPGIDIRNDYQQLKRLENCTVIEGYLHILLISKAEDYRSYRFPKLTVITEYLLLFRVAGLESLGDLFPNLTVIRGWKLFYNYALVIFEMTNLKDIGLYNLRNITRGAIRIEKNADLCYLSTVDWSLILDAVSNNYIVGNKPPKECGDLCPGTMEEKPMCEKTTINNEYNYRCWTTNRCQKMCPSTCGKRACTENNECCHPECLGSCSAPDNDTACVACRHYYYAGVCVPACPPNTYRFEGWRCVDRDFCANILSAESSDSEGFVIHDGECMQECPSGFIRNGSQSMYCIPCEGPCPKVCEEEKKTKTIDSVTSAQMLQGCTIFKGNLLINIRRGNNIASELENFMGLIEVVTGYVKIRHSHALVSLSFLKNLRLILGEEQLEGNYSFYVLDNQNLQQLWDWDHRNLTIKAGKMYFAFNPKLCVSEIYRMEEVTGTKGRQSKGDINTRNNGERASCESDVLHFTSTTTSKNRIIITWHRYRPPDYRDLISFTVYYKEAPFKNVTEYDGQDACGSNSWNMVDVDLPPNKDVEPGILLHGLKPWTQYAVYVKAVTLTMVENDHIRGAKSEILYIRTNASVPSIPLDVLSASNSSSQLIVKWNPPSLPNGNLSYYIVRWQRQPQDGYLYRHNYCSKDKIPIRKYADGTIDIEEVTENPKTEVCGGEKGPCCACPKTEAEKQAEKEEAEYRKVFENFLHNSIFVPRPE
Chain of Insulin-like growth factor 1 receptor (P08069 741-1367 limits assumed): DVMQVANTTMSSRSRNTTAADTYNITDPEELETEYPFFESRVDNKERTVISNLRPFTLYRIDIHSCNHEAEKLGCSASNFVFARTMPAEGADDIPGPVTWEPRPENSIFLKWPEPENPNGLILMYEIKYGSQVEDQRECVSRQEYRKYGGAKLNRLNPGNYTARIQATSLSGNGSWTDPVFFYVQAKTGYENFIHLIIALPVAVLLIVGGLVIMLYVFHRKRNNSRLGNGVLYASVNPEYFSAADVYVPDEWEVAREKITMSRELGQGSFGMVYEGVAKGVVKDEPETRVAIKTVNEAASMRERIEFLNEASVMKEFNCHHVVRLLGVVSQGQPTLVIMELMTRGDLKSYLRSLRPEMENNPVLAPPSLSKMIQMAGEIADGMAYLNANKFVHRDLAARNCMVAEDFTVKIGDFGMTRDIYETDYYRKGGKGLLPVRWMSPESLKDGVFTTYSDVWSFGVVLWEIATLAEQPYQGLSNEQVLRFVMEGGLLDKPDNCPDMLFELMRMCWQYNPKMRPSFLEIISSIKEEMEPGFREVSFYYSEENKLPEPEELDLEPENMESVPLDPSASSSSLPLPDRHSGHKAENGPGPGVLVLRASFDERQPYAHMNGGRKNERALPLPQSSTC
In experiment [10] the target is G protein-coupled receptor kinase 5 (Homo sapiens, UniProt P34947). Kind of experiment: Inhibition of GRK5 (unknown origin) after 60 mins by TR-FRET assay.
Chain of G protein-coupled receptor kinase 5 (P34947 whole entry): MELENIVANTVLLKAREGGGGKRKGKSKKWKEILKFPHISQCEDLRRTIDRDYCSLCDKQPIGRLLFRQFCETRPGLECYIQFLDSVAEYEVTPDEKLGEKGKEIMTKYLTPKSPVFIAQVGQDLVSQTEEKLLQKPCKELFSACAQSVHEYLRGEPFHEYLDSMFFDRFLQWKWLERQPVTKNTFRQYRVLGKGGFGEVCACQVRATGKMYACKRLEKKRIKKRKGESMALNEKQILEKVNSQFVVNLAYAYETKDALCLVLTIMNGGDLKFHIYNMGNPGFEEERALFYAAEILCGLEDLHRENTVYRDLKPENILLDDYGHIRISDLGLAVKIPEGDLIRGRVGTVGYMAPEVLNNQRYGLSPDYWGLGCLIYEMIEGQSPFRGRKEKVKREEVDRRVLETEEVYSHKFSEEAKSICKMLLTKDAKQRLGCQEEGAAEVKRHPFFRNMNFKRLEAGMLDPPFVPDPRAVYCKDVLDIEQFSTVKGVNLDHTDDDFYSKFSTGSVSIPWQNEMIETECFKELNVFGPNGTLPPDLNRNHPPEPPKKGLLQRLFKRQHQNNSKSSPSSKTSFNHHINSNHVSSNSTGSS
Experiment [11] concerns the target Dual specificity tyrosine-phosphorylation-regulated kinase 1A (Homo sapiens, UniProt Q13627). Kind of experiment: Inhibition of DYRK1A (unknown origin) after 60 mins by TR-FRET assay.

A value given as a limit tells only on which side of the number the result lay.

By IC50 is commonly meant the concentration that gives 50% inhibition. Low readings indicate higher potency, high ones lower potency. Usually EC50 stands for the concentration at which the effect is half-maximal.

Chain of Dual specificity tyrosine-phosphorylation-regulated kinase 1B (Q9Y463 whole entry): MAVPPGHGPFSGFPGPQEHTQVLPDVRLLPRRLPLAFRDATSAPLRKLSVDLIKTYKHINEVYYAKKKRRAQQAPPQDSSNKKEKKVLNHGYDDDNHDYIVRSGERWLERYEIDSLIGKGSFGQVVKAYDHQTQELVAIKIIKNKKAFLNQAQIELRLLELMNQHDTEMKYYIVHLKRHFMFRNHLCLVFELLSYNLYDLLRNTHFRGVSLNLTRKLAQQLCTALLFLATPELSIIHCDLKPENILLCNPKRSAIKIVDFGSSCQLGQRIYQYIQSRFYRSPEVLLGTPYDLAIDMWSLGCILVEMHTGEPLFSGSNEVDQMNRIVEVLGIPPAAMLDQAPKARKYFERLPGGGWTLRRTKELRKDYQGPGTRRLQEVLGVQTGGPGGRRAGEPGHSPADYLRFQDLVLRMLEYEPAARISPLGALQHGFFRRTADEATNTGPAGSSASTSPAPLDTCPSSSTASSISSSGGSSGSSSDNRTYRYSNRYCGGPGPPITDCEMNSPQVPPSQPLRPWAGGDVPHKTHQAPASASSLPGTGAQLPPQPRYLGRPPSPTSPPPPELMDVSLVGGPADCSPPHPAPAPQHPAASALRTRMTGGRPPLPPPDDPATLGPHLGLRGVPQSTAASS
Chain of Glycogen synthase kinase-3 beta (P49841 whole entry): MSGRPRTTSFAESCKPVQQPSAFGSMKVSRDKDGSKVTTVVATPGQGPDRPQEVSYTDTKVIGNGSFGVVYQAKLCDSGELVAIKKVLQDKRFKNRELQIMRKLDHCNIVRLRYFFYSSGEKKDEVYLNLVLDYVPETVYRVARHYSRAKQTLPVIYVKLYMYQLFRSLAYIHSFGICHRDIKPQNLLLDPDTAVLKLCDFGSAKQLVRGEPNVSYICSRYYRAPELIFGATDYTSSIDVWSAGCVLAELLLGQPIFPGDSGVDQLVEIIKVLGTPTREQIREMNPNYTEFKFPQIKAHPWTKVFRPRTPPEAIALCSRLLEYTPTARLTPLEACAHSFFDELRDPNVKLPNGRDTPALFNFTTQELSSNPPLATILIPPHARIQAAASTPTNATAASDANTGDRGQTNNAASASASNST
Chain of Rho-associated protein kinase 1 (Q13464 whole entry): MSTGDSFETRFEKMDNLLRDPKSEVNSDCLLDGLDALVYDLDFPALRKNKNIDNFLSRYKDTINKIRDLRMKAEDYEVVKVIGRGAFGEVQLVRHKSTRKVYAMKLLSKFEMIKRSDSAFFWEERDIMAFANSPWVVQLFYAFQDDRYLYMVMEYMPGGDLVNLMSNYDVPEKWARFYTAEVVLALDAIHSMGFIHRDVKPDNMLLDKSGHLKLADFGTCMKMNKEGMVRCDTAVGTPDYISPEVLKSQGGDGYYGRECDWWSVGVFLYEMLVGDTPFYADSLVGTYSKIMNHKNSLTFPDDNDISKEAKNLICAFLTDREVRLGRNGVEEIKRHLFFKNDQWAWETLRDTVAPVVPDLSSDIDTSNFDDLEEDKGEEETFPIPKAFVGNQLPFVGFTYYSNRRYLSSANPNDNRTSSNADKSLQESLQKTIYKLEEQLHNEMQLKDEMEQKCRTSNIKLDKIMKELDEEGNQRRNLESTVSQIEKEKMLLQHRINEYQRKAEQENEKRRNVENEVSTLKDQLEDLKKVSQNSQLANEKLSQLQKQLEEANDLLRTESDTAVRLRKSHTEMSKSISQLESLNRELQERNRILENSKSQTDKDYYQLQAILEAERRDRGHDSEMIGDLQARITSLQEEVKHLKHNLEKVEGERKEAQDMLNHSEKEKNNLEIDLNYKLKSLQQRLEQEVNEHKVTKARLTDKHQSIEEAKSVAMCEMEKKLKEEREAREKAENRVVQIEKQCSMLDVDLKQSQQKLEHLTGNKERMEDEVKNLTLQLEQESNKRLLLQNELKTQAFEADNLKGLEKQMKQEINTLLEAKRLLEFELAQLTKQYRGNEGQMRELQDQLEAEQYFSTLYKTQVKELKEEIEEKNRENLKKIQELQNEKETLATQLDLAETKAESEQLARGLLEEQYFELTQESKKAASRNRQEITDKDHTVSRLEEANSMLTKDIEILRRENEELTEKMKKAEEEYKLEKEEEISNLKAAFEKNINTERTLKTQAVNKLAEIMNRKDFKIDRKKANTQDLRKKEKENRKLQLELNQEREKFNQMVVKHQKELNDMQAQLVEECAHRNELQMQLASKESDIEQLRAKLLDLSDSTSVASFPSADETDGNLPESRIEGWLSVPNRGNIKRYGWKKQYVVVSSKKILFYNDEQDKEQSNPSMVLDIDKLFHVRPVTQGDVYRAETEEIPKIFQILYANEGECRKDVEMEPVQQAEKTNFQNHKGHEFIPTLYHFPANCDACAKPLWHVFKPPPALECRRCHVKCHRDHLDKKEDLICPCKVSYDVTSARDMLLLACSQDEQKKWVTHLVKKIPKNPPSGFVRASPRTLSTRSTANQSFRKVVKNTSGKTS
Chain of Protein kinase C theta type (Q04759 whole entry): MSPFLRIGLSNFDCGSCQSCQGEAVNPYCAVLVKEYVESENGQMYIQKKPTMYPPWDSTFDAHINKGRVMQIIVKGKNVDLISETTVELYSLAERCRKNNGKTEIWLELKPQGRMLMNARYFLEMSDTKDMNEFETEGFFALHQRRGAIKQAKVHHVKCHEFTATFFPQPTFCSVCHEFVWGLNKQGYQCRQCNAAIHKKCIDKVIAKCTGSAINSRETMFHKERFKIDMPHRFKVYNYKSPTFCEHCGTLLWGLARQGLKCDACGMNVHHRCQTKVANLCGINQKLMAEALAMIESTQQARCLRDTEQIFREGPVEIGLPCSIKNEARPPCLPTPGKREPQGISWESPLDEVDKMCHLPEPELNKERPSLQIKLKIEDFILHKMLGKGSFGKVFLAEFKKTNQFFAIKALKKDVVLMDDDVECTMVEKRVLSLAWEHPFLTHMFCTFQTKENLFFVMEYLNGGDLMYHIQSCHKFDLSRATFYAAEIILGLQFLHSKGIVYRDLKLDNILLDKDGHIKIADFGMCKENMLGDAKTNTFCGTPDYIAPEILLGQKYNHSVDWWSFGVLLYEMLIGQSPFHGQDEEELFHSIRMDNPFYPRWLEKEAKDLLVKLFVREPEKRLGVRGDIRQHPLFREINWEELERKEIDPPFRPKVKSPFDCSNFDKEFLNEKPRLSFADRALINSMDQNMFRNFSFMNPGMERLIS

Consider `CC1(C)OCC(=O)Nc2cc(Nc3nc(NCC(F)(F)F)c4occc4n3)ccc21`, for which the IC50 in experiment [1] was above 10 µM; in [2], above 10 µM; in experiment [4], above 10 µM; in experiment [5], 7.61 µM; in experiment [6], above 10 µM; at MAP kinase p38, above 10 µM. Besides, the IC50 in experiment [7] is 5.78 µM; in experiment [8], above 10 µM; in experiment [9], 6.02 µM; in experiment [10], above 10 µM; in [11], above 10 µM. Also, the EC50 in experiment [3] was 0.017 µM.

In the case of `FC(F)(F)CNc1nc(Nc2ccc(N3CCOCC3)c(Cl)c2)nc2ccoc12`, the IC50 in [1], in experiment [2], in [4], in experiment [5], in experiment [6] and in [7] was above 10 µM throughout. Besides, the IC50 in [8], in [9], in [10] and in [11] was above 10 µM in each case. Also, the EC50 in experiment [3] is 0.117 µM.

For the compound `FC(F)(F)CNc1nc(Nc2ccc3cn[nH]c3c2)nc2ccoc12`, the IC50 in experiment [1] was above 10 µM; in [2] it was above 10 µM; in experiment [5] it was above 10 µM; in [6], above 10 µM; on MAP kinase p38, above 10 µM; in experiment [7], 8.61 µM. Also, the values for the IC50 in experiment [9], in experiment [10] and in experiment [11] were above 10 µM, 8.12 µM and 4.86 µM, respectively. Also, in experiment [3], a half-maximal effect (EC50) was put at 0.235 µM.

Take `Cc1n[nH]c2cc(Nc3nc(NC4CC4)c4occc4n3)ccc12`: the IC50 (in experiment [1]; in [2]; in [4]; in experiment [5]; in experiment [6]; on MAP kinase p38) was above 10 µM each time. In addition, the IC50 in experiment [7] was above 10 µM; in experiment [8], above 10 µM; in [9] it was above 10 µM; in experiment [10] it was 9.96 µM; in [11], above 10 µM.
